From US12419307B2, “Mixtures comprising indazole pesticides” (FMC Corporation, priority 2019, dated 2025) come the findings set out here.

What all share (format): in vivo
Series [1] has as its system silverleaf whitefly (Bemisia argentifolii Bellows and Perring). The experiment in a line: Test A: silverleaf whitefly control on cotton or soybean plants, spray, insect mortality after 13 days. The note with it: for % Mortality (obs): applied alone. As to the method: (§1) The pest control protection afforded by the mixtures or compositions is not limited, however, to these species. The analysis of enhanced activity between the mixtures or compositions was determined using Colby's equation. The average % mortality data for the test compounds alone were inserted into the Colby's equation. If the observed (obs) average % mortality was higher than “p”, the expected (exp) % mortality, the mixture or composition had enhanced effects. If the observed average % mortality was equal to or lower than the expected mortality, the mixture or composition either had no enhanced effect. For bioassays where insect feeding damage was evaluated, enhanced activity is identified when the observed plant damage is less than the expected plant damage rating; ratings ranged between 0 (no damage) and 10 (dead plant) and each value was converted to a % plant protection. 100−(Obs Plant Damage*10)
For evaluating control of silverleaf whitefly (Bemisia argentifolii Bellows and Perring) through contact and/or systemic means, each test unit consisted of a small open container with a 12- to 14-day-old cotton plant or 5-7 day old soybean plant inside. This was pre-infested by placing test units into cages containing adult whiteflies so that oviposition on the cotton leaves could occur. The adults were removed from the plants with an air-blast nozzle, and the test units were capped. The test units were then stored 2 to 3 days before spraying.
Test compounds were formulated using a solution containing 10% acetone, 90% water and 300 ppm Activator 90@ Spreader Lo-Foam Formula non-ionic surfactant containing alkylarylpolyoxyethylene, free fatty acids, glycols and 2-propanol (Loveland Industries, Inc.) to provide the desired concentration in ppm. Formulated test solutions were then applied in 1 mL volumes through a SUJ2 atomizer nozzle with ⅛ JJ custom body (Spraying Systems Co.) positioned 1.27 cm (0.5 inches) above the top of each test unit.
The results for all experimental compositions in this test were replicated three times. After spraying of the formulated test composition, each test unit was allowed to dry for 1 hour and the cap removed. The test units were held for 13 days in a growth chamber at 28° C. and 50-70% relative humidity.

Series [2] relates to Western Flower Thrips (Frankliniella occidentalis Pergande). The experiment in a line: Test B: Western Flower Thrips control on bean plants, plant damage rating converted to % plant protection after 7 days. The procedure: as §1
Thus, a plant given a plant damage rating of 3 out of 10 is equivalent to 70% plant protection In all of these tests, compounds of Formula I are Compounds 1 (Cpd 1), 2 (Cpd2), and 3 (Cpd3) and compounds of Formula II are compounds 4 (Cpd4) and 5 (Cpd 5).
For evaluating control of the Western Flower Thrips (Frankliniella occidentalis Pergande) through contact and/or systemic means, each test unit consisted of a small open container with a 5- to 7-day-old bean (var. Soleil) plant inside.
Test solutions were formulated and sprayed with 3 replications as described for Test A. After spraying, the test units were allowed to dry for 1 hour, 22 to 27 adult thrips were added to each unit and then a black, screened cap was placed on top. The test units were held for 7 days at 25° C. and 45-55% relative humidity. To evaluate the level of plant protection provided by each treatment, each test unit was then visually assessed for plant damage inflicted by insect feeding and rated 0-10, where 0=undamaged and 10=plant is dead; the results are listed in Tables 3a-g.

Series [3] has as its system cotton melon aphid (Aphis gossypii Glover). The experiment in a line: Test D: cotton melon aphid control on okra plants, insect mortality after 6 days. As to the method: The analysis of enhanced activity between the mixtures or compositions was determined using Colby's equation. The average % mortality data for the test compounds alone were inserted into the Colby's equation. If the observed (obs) average % mortality was higher than “p”, the expected (exp) % mortality, the mixture or composition had enhanced effects. If the observed average % mortality was equal to or lower than the expected mortality, the mixture or composition either had no enhanced effect. For bioassays where insect feeding damage was evaluated, enhanced activity is identified when the observed plant damage is less than the expected plant damage rating; ratings ranged between 0 (no damage) and 10 (dead plant) and each value was converted to a % plant protection. 100−(Obs Plant Damage*10)
For evaluating control of cotton melon aphid (Aphis gossypii Glover) through contact and/or systemic means, each test unit consisted of a small open container with a 6- to 7-day-old okra plant inside. This was pre-infested by placing on a leaf of the test plant 30 to 40 aphids on a piece of leaf excised from a culture plant (cut-leaf method). The […] moved onto the test plant as the leaf piece desiccated. After pre-infestation, the soil of the test unit was covered with a layer of sand.
Test compounds were formulated and sprayed as described for Test A. The applications were replicated three times. After spraying of the formulated test compounds, each test unit was allowed to dry for 1 hour and then a black, screened cap was placed on top. […]

For series [4], the system named is corn planthopper (Peregrinus maidis (Ashmead)). Put plainly: Test C: corn planthopper control on corn plants, insect mortality after 6 days. The following applies: for % Mortality (obs): Table 4e. The procedure: as §1
For evaluating control of corn planthopper (Peregrinus maidis (Ashmead)) through contact and/or systemic means, the test unit consisted of a small open container with a 3-4-day-old corn (maize) plant inside. White sand was added to the top of the soil prior to application of the test compound.
Test compounds were formulated and sprayed at 250 and/or 50 ppm and/or 10 ppm. After spraying of the formulated test compound, the test units were allowed to dry for 1 h before they were post-infested with ˜15-20 nymphs (18-to-21-day-old). […]

Series [5] deals with fall armyworm (Spodoptera frugiperda (J. E. Smith)). Put plainly: Test E: fall armyworm control on corn plants, plant damage rating and mortality after 6 days. As to the method: as §1
For evaluating control of fall armyworm (Spodoptera frugiperda (J. E. Smith)) the test unit consisted of a small open container with a 4-5-day-old corn (maize) plant inside. This was pre-infested with 10-15 1-day-old larvae on a piece of insect diet. Test compounds were formulated and sprayed with 3 replications as described for Test A. After spraying of the formulated test compound, the test units were maintained in a growth chamber for 6 days at 25° C. and 70% relative humidity. Plant feeding damage was then visually assessed based on foliage consumed, and larvae were assessed for mortality. Each test unit was then visually assessed for plant damage and rated 0-10, where 0=undamaged and 10=plant is dead; the results are listed in Tables 6d-i.

Setting [6] is: Bemisia argentifolii, read-out: % Mortality (obs).
The mark [7] stands for this setting: Aphis gossypii, read-out: % Mortality (obs).
The mark [8] stands for this setting: Peregrinus maidis, read-out: % Mortality (obs).
Setting [9] is: Spodoptera frugiperda, 144 h, read-out: Plant Protection (obs).

On to `Cc1c(COC(=O)[C@@H]2[C@H](/C=C(\Cl)C(F)(F)F)C2(C)C)cccc1-c1ccccc1` (racemic) [Bifenthrin, bifenthrin, reference compound], for which the mortality at 50 ppm in series [1] (setting [6]) amounted to 0%; in series [3] (setting [7]), 28.7%. The figures for the mortality at 250 ppm in series [1] (setting [6]) and in series [3] (setting [7]) were 0% and 58.2%, respectively. The pest or weed control at 50 ppm in series [2] (Frankliniella occidentalis, 168 h, Table 3f, 50 ppm, read-out: Plant Protection (obs)) worked out at 36.7%. Further, the pest or weed control at 250 ppm in series [2] (Frankliniella occidentalis, 168 h, Table 3f, 250 ppm, read-out: Plant Protection (obs)) stood at 70%.
On to `C/C(=N\C#N)N(C)Cc1ccc(Cl)nc1` [Acetamiprid, acetamiprid, reference compound], for which, in series [1] (setting [6]), the mortality at 2.52 ppm amounted to 6.5% and the mortality at 6.88 ppm stood at 25.4%. Further, the “Plant Protection (obs)” value in series [2] (Table 3b, applied alone, 5.49 ppm) was 30.0%. For the same compound, the “Plant Protection (obs)” value in series [2] (Table 3b, applied alone, 7.04 ppm) was determined as 70.0%. Besides, in series [3] (setting [7]), the mortality at 0.03 ppm amounted to 21.1% and the mortality at 0.06 ppm is 45.1%.
For `CC(C)N1C(=O)N(c2ccccc2)CS/C1=N\C(C)(C)C` [Buprofezin, buprofezin, reference compound], in series [4] (setting [8]), the mortality at 0.524 ppm is 83.7% and the mortality at 0.984 ppm turned out to be 94.6%.
With `CNC(=O)c1cc(Cl)cc(C)c1NC(=O)c1cc(Br)nn1-c1ncccc1Cl` [Chlorantraniliprole, chlorantraniliprole, reference compound], in series [1] (setting [6]), the mortality at 0.54 ppm came to 0% and the mortality at 189.1 ppm is 59.2%. Moreover, the pest or weed control at 2.08 ppm in series [2] (Frankliniella occidentalis, 168 h, Table 3e, 2.08 ppm, read-out: Plant Protection (obs)) was found to be 63.3%. Moreover, in series [2] (Frankliniella occidentalis, 168 h, Table 3e, 28.7 ppm, read-out: Plant Protection (obs)), the pest or weed control at 28.7 ppm came out at 60%. In series [3] (setting [7]), the mortality at 0.23 ppm amounted to 21% and the mortality at 0.63 ppm amounted to 42.3%.
For `CCOCn1c(-c2ccc(Cl)cc2)c(C#N)c(Br)c1C(F)(F)F` [Chlorfenapyr, chlorfenapyr, reference compound], in series [5] (setting [9]), the pest or weed control at 3.7 ppm is 66.7% and the pest or weed control at 5 ppm worked out at 53.3%.
On to `CCOP(=S)(OCC)Oc1nc(Cl)c(Cl)cc1Cl` [Chlorpyrifos, chlorpyrifos, reference compound], for which, in series [3] (setting [7]), the mortality at 0.173 ppm amounted to 17.7% and the mortality at 0.624 ppm came to 37.9%.
Consider `N#Cc1nn(-c2c(Cl)cc(C(F)(F)F)cc2Cl)c(N)c1[S+]([O-])C(F)(F)F` (stereo not shown) [Fipronil, fipronil, reference compound], for which, in series [4] (setting [8]), the mortality at 0.78 ppm turned out to be 65.2% and the mortality at 1.197 ppm is 85.5%.
`N#CCNC(=O)c1cnccc1C(F)(F)F` [Flonicamid, flonicamid, reference compound]: the “% Mortality (obs)” value came to 24.2% in series [3] (Table 5k, 0.027 ppm) and 49.3% in series [3] (Table 5k, 0.267 ppm).
As for `O=C1C=C(N(Cc2ccc(Cl)nc2)CC(F)F)CO1` [Flupyradifurone, 4-[[(6-chloro-3-pyridinyl)methyl](2,2-difluoroethyl)amino]-2(5H)-furanone, reference compound], in series [3] (setting [7]), the mortality at 0.02 ppm is 23.4% and the mortality at 0.075 ppm amounted to 48%.
As to `COC(=O)N(C(=O)N1CO[C@@]2(C(=O)OC)Cc3cc(Cl)ccc3C2=N1)c1ccc(OC(F)(F)F)cc1` [Indoxacarb, indoxacarb, reference compound], the “% Mortality (obs)” value was 1.2% in series [1] (Table 2g, 50 ppm); 0% in series [1] (Table 2g, 250 ppm); 23.4% in series [3] (Table 5h, 50 ppm); 37.5% in series [3] (Table 5h, 250 ppm). In addition, the “Plant Protection (obs)” value is listed as 10.0 in series [2] (Table 3g, 50 ppm); 36.7 in series [2] (Table 3g, 250 ppm); 70 in series [5] (Table 6e, 0.2 ppm); 70 in series [5] (Table 6e, 0.5 ppm).
For the compound `CNC(=O)ON=C(C)SC` [Methomyl, methomyl, reference compound], in series [5] (setting [9]), the pest or weed control at 8.5 ppm was 43.3%.
With `COc1cccc(C(=O)NN(C(=O)c2cc(C)cc(C)c2)C(C)(C)C)c1C` [Methoxyfenozide, methoxyfenozide, reference compound], the pest or weed control at 2.8 ppm in series [5] (setting [9]) came out at 36.7%.
Turning to `O=C(NC(=O)c1c(F)cccc1F)Nc1ccc(OC(F)(F)C(F)OC(F)(F)F)c(Cl)c1` (stereo not shown) [Novaluron, novaluron, reference compound], in series [5] (setting [9]), the pest or weed control at 0.21 ppm turned out to be 33.3% and the pest or weed control at 0.36 ppm was determined as 80%.
Consider `CC1(C)C(C=C(Cl)Cl)C1C(=O)OCc1cccc(Oc2ccccc2)c1` (stereo not shown) [Permethrin, permethrin, reference compound], for which, in series [3] (setting [7]), the mortality at 0.0004 ppm came to 15.6% and the mortality at 0.04 ppm is 32.1%.
With `CC(COc1ccc(Oc2ccccc2)cc1)Oc1ccccn1` (stereo not shown) [Pyriproxyfen, pyriproxyfen, reference compound], the mortality at 0.053 ppm in series [1] (setting [6]) was 68%.
Regarding `CCc1nn(C)c(C(=O)NCc2ccc(Oc3ccc(C)cc3)cc2)c1Cl` [Tolfenpyrad, tolfenpyrad, reference compound], in series [3] (setting [7]), the mortality at 0.192 ppm is 29% and the mortality at 0.753 ppm is 61.9%.
As to emamectin benzoate [reference compound], the “Plant Protection (obs)” value in series [5] (Table 6f, 0.03 ppm) is given as 43.3; in series [5] (Table 6f, 0.06 ppm), 23.3.
In the case of spinetoram [reference compound], the “% Mortality (obs)” value came out at 0% in series [1] (Table 2h, 5 ppm); 64.4% in series [1] (Table 2h, 29.5 ppm); 7.5% in series [4] (8.46 ppm); 14.1% in series [4] (20.79 ppm); 51.2% in series [3] (Table 5f, 50 ppm); 73.9% in series [3] (Table 5f, 250 ppm).

As usually defined, the mortality is the share of the test organisms that died.
